Laboratory results: the NIST ThermoML archive (doi:10.1016/j.fluid.2011.12.029)

Conditions: Liquid, Vibrating tube method

CCCC[n+]1ccccc1.O=S(=O)([O-])C(F)(F)F [1-butylpyridinium trifluoromethanesulfonate]
mass density [kg/m3]
Conditions | 303.15 K | 308.15 K | 313.15 K | 318.15 K | 323.15 K | 328.15 K | 333.15 K
100 kPa | 1311.77 | 1307.87 | 1303.91 | 1299.91 | 1296.31 | 1292.18 | 1288.27
5000 kPa | 1314.63 | 1310.78 | 1306.89 | 1303.07 | 1298.89 | 1295.18 | 1291.41
10000 kPa | 1317.44 | 1313.65 | 1309.74 | 1305.66 | 1302.15 | 1298.11 | 1294.46
15000 kPa | 1320.2 | 1316.6 | 1312.65 | 1308.66 | 1304.98 | 1301.2 | 1297.41
20000 kPa | 1322.82 | 1319.24 | 1315.17 | 1311.4 | 1307.88 | 1304.07 | 1300.4
25000 kPa | 1325.53 | 1321.85 | 1317.99 | 1314.14 | 1310.7 | 1306.75 | 1303.31
30000 kPa | 1328.06 | 1324.38 | 1320.63 | 1316.74 | 1313.34 | 1309.49 | 1306.06
35000 kPa | 1330.48 | 1326.93 | 1323.08 | 1319.52 | 1315.79 | 1312.17 | 1308.77
40000 kPa | 1332.93 | 1329.48 | 1325.67 | 1322.07 | 1318.44 | 1314.65 | 1311.33
45000 kPa | 1335.28 | 1331.89 | 1328.04 | 1324.29 | 1321.03 | 1317.18 | 1313.93
50000 kPa | 1337.67 | 1333.97 | 1330.42 | 1326.61 | 1323.34 | 1319.65 | 1316.36
55000 kPa | 1339.98 | 1336.34 | 1332.73 | 1328.88 | 1325.68 | 1322 | 1318.77
60000 kPa | 1342.03 | 1338.51 | 1334.95 | 1331.4 | 1328.01 | 1324.3 | 1320.81
65000 kPa | 1344.13 | 1340.54 | 1337.08 | 1333.55 | 1330.03 | 1326.69 | 1323.38

CCCCCCCC[n+]1cccc(C)c1.F[B-](F)(F)F [N-octyl-3-methylpyridinium tetrafluoroborate]
Conditions | mass density [kg/m3]
283.15 K, 100 kPa | 1106.25
283.15 K, 5000 kPa | 1108.56
283.15 K, 10000 kPa | 1110.95
283.15 K, 15000 kPa | 1113.26
283.15 K, 20000 kPa | 1115.53
283.15 K, 25000 kPa | 1117.71
283.15 K, 30000 kPa | 1119.8
283.15 K, 35000 kPa | 1121.93
283.15 K, 40000 kPa | 1123.9
283.15 K, 45000 kPa | 1125.95
283.15 K, 50000 kPa | 1127.8
283.15 K, 55000 kPa | 1129.77
283.15 K, 60000 kPa | 1131.58
283.15 K, 65000 kPa | 1133.37
288.15 K, 100 kPa | 1102.88
288.15 K, 5000 kPa | 1105.22
288.15 K, 10000 kPa | 1107.61
288.15 K, 15000 kPa | 1109.98
288.15 K, 20000 kPa | 1112.32
288.15 K, 25000 kPa | 1114.52
288.15 K, 30000 kPa | 1116.64
288.15 K, 35000 kPa | 1118.71
288.15 K, 40000 kPa | 1120.76
288.15 K, 45000 kPa | 1122.74
288.15 K, 50000 kPa | 1124.72
288.15 K, 55000 kPa | 1126.63
288.15 K, 60000 kPa | 1128.51
288.15 K, 65000 kPa | 1130.3
293.15 K, 100 kPa | 1099.53
293.15 K, 5000 kPa | 1102.06
293.15 K, 10000 kPa | 1104.51
293.15 K, 15000 kPa | 1106.86
293.15 K, 20000 kPa | 1109.18
293.15 K, 25000 kPa | 1111.4
293.15 K, 30000 kPa | 1113.56
293.15 K, 35000 kPa | 1115.81
293.15 K, 40000 kPa | 1117.82
293.15 K, 45000 kPa | 1119.87
293.15 K, 50000 kPa | 1121.88
293.15 K, 55000 kPa | 1123.82
293.15 K, 60000 kPa | 1125.67
293.15 K, 65000 kPa | 1127.47
298.15 K, 100 kPa | 1096.08
298.15 K, 5000 kPa | 1098.54
298.15 K, 10000 kPa | 1101.04
298.15 K, 15000 kPa | 1103.47
298.15 K, 20000 kPa | 1105.84
298.15 K, 25000 kPa | 1108.07
298.15 K, 30000 kPa | 1110.33
298.15 K, 35000 kPa | 1112.49
298.15 K, 40000 kPa | 1114.56
298.15 K, 45000 kPa | 1116.65
298.15 K, 50000 kPa | 1118.65
298.15 K, 55000 kPa | 1120.63
298.15 K, 60000 kPa | 1122.5
298.15 K, 65000 kPa | 1124.52
303.15 K, 100 kPa | 1092.83
303.15 K, 5000 kPa | 1095.28
303.15 K, 10000 kPa | 1097.84
303.15 K, 15000 kPa | 1100.3
303.15 K, 20000 kPa | 1102.65
303.15 K, 25000 kPa | 1104.99
303.15 K, 30000 kPa | 1107.32
303.15 K, 35000 kPa | 1109.47
303.15 K, 40000 kPa | 1111.6
303.15 K, 45000 kPa | 1113.68
303.15 K, 50000 kPa | 1115.8
303.15 K, 55000 kPa | 1117.71
303.15 K, 60000 kPa | 1119.7
303.15 K, 65000 kPa | 1121.56
308.15 K, 100 kPa | 1089.26
308.15 K, 5000 kPa | 1091.74
308.15 K, 10000 kPa | 1094.35
308.15 K, 15000 kPa | 1096.91
308.15 K, 20000 kPa | 1099.29
308.15 K, 25000 kPa | 1101.65
308.15 K, 30000 kPa | 1103.95
308.15 K, 35000 kPa | 1106.18
308.15 K, 40000 kPa | 1108.37
308.15 K, 45000 kPa | 1110.56
308.15 K, 50000 kPa | 1112.6
308.15 K, 55000 kPa | 1114.63
308.15 K, 60000 kPa | 1116.66
308.15 K, 65000 kPa | 1118.6
313.15 K, 100 kPa | 1085.88
313.15 K, 5000 kPa | 1088.47
313.15 K, 10000 kPa | 1091.09
313.15 K, 15000 kPa | 1093.69
313.15 K, 20000 kPa | 1096.09
313.15 K, 25000 kPa | 1098.54
313.15 K, 30000 kPa | 1100.84
313.15 K, 35000 kPa | 1103.14
313.15 K, 40000 kPa | 1105.37
313.15 K, 45000 kPa | 1107.51
313.15 K, 50000 kPa | 1109.66
313.15 K, 55000 kPa | 1111.71
313.15 K, 60000 kPa | 1113.7
313.15 K, 65000 kPa | 1115.65
318.15 K, 100 kPa | 1082.49
318.15 K, 5000 kPa | 1085.16
318.15 K, 10000 kPa | 1087.86
318.15 K, 15000 kPa | 1090.4
318.15 K, 20000 kPa | 1092.87
318.15 K, 25000 kPa | 1095.34
318.15 K, 30000 kPa | 1097.71
318.15 K, 35000 kPa | 1100
318.15 K, 40000 kPa | 1102.23
318.15 K, 45000 kPa | 1104.4
318.15 K, 50000 kPa | 1106.52
318.15 K, 55000 kPa | 1108.63
318.15 K, 60000 kPa | 1110.64
318.15 K, 65000 kPa | 1112.69
323.15 K, 100 kPa | 1079.26
323.15 K, 5000 kPa | 1082.03
323.15 K, 10000 kPa | 1084.69
323.15 K, 15000 kPa | 1087.27
323.15 K, 20000 kPa | 1089.69
323.15 K, 25000 kPa | 1092.26
323.15 K, 30000 kPa | 1094.65
323.15 K, 35000 kPa | 1096.93
323.15 K, 40000 kPa | 1099.23
323.15 K, 45000 kPa | 1101.43
323.15 K, 50000 kPa | 1103.63
323.15 K, 55000 kPa | 1105.69
323.15 K, 60000 kPa | 1107.78
323.15 K, 65000 kPa | 1109.77
328.15 K, 100 kPa | 1075.89
328.15 K, 5000 kPa | 1078.67
328.15 K, 10000 kPa | 1081.32
328.15 K, 15000 kPa | 1083.91
328.15 K, 20000 kPa | 1086.53
328.15 K, 25000 kPa | 1089.05
328.15 K, 30000 kPa | 1091.41
328.15 K, 35000 kPa | 1093.82
328.15 K, 40000 kPa | 1096.15
328.15 K, 45000 kPa | 1098.38
328.15 K, 50000 kPa | 1100.54
328.15 K, 55000 kPa | 1102.61
328.15 K, 60000 kPa | 1104.75
328.15 K, 65000 kPa | 1106.82
333.15 K, 100 kPa | 1072.64
333.15 K, 5000 kPa | 1075.39
333.15 K, 10000 kPa | 1078.24
333.15 K, 15000 kPa | 1080.9
333.15 K, 20000 kPa | 1083.46
333.15 K, 25000 kPa | 1086.03
333.15 K, 30000 kPa | 1088.48
333.15 K, 35000 kPa | 1090.88
333.15 K, 40000 kPa | 1093.31
333.15 K, 45000 kPa | 1095.48
333.15 K, 50000 kPa | 1097.71
333.15 K, 55000 kPa | 1099.8
333.15 K, 60000 kPa | 1101.97
333.15 K, 65000 kPa | 1104.05
